# Test results reported in US20230373974A1, “MODULATORS OF CYSTIC FIBROSIS TRANSMEMBRANE CONDUCTANCE REGULATOR” (VERTEX PHARMACEUTICALS INCORPORATED, priority 2020, published 2023).
# Biological target: T1, F508del in NIH 3T3 cells (Homo sapiens, UniProt P13569, DEL508-508)
# T1 construct: expressed in transfected cells
# Assay: 3T3 assay: membrane potential optical assay for F508del correction
# Assay type: cell-based, mouse
# Conditions: F508del NIH 3T3 cells; for EC50: incubated with compound 18-24 hours at 37° C., forskolin activation; for Emax: NIH3T3, efficacy compared to lumacaftor in combination with acutely added 300 nM Ivacaftor, read-out: 3T3 Max Activity (%)
# From the text: Membrane Potential Optical Methods for Assaying F508del Modulation Properties of Compounds The assay utilizes fluorescent voltage sensing dyes to measure changes in membrane potential using a fluorescent plate reader (e.g., FLIPR III, Molecular Devices, Inc.) as a readout for increase in functional F508del in NIH 3T3 cells. The driving force for the response is the creation of a chloride ion gradient in conjunction with channel activation by a single liquid addition step after the cells have previously been treated with compounds and subsequently loaded with a voltage sensing dye. 2. Identification of Corrector Compounds To identify correctors of F508del, a single-addition HTS assay format was developed. This HTS assay utilizes fluorescent voltage sensing dyes to measure changes in membrane potential on the FLIPR III as a measurement for increase in gating (conductance) of F508del in F508del NIH 3T3 cells. The F508del NIH 3T3 cell cultures were incubated with the corrector compounds at a range of concentrations for 18-24 hours at 37° C., and subsequently loaded with a redistribution dye. The driving force for the response is a Cl^− ion gradient in conjunction with channel activation with forskolin in a single liquid addition step using a fluorescent plate reader such as FLIPR III. […] Solutions […] Chloride-free bath solution: Chloride salts in Bath Solution #1 (above) are substituted with gluconate salts. 4. Cell Culture NIH3T3 mouse fibroblasts stably expressing F508del are used for optical measurements of membrane potential. The cells are maintained at 37° C. in 5% CO2 and 90% humidity in Dulbecco's modified Eagle's medium supplemented with 2 mM glutamine, 10% fetal bovine serum, 1×NEAA, b-ME, 1×pen/strep, and 25 mM HEPES in 175 cm^2 culture flasks. For all optical assays, the cells were seeded at ˜20,000/well in 384-well Matrigel-coated plates. For the correction assays, the cells are cultured at 37° C. with and without compounds for 16-24 hours.
# T1 sequence (P13569 with tags, fused parts or gaps DEL508-508): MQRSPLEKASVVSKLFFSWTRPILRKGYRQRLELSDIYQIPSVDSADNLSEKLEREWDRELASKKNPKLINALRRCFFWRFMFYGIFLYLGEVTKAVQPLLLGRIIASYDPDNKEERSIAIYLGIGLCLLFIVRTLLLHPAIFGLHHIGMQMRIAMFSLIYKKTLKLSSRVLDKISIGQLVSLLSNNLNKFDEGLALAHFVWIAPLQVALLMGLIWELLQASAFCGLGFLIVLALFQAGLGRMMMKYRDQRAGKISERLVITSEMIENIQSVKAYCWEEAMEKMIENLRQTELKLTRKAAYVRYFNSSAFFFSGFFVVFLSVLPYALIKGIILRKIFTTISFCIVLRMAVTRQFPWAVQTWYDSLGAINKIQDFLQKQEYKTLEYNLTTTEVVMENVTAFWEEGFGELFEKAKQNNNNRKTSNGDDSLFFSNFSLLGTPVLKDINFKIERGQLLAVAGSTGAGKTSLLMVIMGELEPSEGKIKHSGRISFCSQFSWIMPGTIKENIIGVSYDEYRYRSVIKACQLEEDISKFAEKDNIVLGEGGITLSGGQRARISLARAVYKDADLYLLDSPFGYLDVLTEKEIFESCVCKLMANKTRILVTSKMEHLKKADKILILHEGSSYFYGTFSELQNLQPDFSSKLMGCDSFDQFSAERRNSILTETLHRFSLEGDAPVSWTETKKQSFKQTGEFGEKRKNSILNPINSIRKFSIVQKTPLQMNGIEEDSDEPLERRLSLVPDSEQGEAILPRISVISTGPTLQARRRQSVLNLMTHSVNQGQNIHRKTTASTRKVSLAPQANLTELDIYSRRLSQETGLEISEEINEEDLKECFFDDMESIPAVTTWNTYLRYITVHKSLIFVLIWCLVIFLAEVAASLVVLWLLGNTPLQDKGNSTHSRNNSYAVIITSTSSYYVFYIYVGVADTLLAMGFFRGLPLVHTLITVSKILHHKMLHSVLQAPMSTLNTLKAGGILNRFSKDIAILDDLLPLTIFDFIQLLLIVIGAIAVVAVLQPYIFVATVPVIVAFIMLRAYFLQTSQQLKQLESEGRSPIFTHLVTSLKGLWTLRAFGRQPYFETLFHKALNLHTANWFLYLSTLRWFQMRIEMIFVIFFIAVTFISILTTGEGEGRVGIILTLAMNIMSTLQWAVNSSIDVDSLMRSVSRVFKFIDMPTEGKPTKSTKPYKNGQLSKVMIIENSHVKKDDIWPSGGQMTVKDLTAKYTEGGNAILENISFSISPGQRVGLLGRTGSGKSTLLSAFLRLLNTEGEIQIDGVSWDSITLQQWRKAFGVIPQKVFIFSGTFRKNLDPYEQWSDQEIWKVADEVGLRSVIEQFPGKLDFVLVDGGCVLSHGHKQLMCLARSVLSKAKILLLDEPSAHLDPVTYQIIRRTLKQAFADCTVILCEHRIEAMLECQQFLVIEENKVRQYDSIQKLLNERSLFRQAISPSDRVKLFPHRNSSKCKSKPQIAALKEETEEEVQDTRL
EC50 [nM],Emax [%],SMILES
< 1000,30 to 60,CC(C)(C)c1ccc2c(NS(=O)(=O)c3ccccc3)nn(-c3ccccc3)c2n1 [Compound 40]
,< 30,CC(C)CCn1nc(NS(=O)(=O)c2ccccc2)c2ccc(C(C)(C)C)nc21 [Compound 41]
< 1000,30 to 60,Cc1ccccc1-n1nc(NS(=O)(=O)c2ccccc2)c2ccc(C(C)(C)C)nc21 [Compound 45]
,< 30,CC(C)C(C)n1nc(NS(=O)(=O)c2ccccc2)c2ccc(C(C)(C)C)nc21 (stereo not shown) [Compound 49]
< 1000,30 to 60,COc1cccc(-n2nc(NS(=O)(=O)c3ccccc3)c3ccc(C(C)(C)C)nc32)c1 [Compound 50]
1000 to 3000,30 to 60,COc1ccccc1-n1nc(NS(=O)(=O)c2ccccc2)c2ccc(C(C)(C)C)nc21 [Compound 51]
,30 to 60,Cc1cc(C)c(-n2nc(NS(=O)(=O)c3ccccc3)c3cccnc32)c(C)c1 [Compound 52]
1000 to 3000,30 to 60,"Cc1ccccc1-n1nc(NS(=O)(=O)c2ccccc2)c2ccc(Br)cc21 [Compound 70, N-[6-bromo-1-(o-tolyl)indazol-3-yl]benzenesulfonamide]"
1000 to 3000,> 60,"C=C(C)c1ccc2c(NS(=O)(=O)c3ccccc3)nn(-c3ccccc3C)c2c1 [Compound 72, N-[6-isopropenyl-1-(o-tolyl)indazol-3-yl]benzenesulfonamide]"
1000 to 3000,30 to 60,"Cc1ccccc1-n1nc(NS(=O)(=O)c2ccccc2)c2ccc(C(C)C)cc21 [Compound 73, N-[6-isopropyl-1-(o-tolyl)indazol-3-yl]benzenesulfonamide]"
,< 30,CCn1nc(NS(=O)(=O)c2ccccc2)c2ccccc21 [Compound 74]
< 1000,,"Cc1cc(C)cc(-c2nc(NS(=O)(=O)c3ccccc3)cc3ccccc23)c1 [Compound 77, N-[1-(3,5-dimethylphenyl)-3-isoquinolyl]benzenesulfonamide]"
,< 30,"Cc1cc(C)cc(-c2cc(NS(=O)(=O)c3ccccc3)nc3ccccc23)c1 [Compound 78, N-[4-(3,5-Dimethylphenyl)-2-quinolyl]benzenesulfonamide]"
,< 30,Cc1cc(NS(=O)(=O)c2ccccc2)nc2ccccc12 [Compound 81]
,< 30,O=S(=O)(Nc1ccc2cc[nH]c2n1)c1ccccc1 [Compound 82]
,< 30,CC(C)n1c(NS(=O)(=O)c2ccccc2)nc2ccccc21 [Compound 85]
,< 30,Cn1c(NS(=O)(=O)c2ccccc2)nc2ccccc21 [Compound 86]
,< 30,CC(C)(C)c1ccc2c(NS(=O)(=O)c3ccccc3)cn(-c3cccc(Cl)c3)c2n1 [Compound 87]
,< 30,Cc1cc(C)cc(-n2cc(NS(=O)(=O)c3ccccc3)c3ccc(C(C)(C)C)nc32)c1 [Compound 88]
,< 30,Cc1ccccc1-n1cc(NS(=O)(=O)c2ccccc2)c2ccc(C(C)(C)C)nc21 [Compound 89]
,< 30,Cc1cc(C)cc(-n2c(NS(=O)(=O)c3ccccc3)nc3cc(C(C)(C)C)ccc32)c1 [Compound 91]

# The remaining lines, values behind:
SMILES,EC50 [nM],Emax [%]
Cc1cc(C)c(-n2nc(NS(=O)(=O)c3cccc(N)n3)c3ccc(C(C)(C)C)nc32)c(C)c1 [Compound 42],1000 to 3000,30 to 60
Cc1ccc(-n2nc(NS(=O)(=O)c3ccccc3)c3ccc(C(C)(C)C)nc32)c(C)c1 [Compound 43],< 1000,30 to 60
Cc1ccc(-n2nc(NS(=O)(=O)c3ccccc3)c3ccc(C(C)(C)C)nc32)cc1 [Compound 44],< 1000,30 to 60
Cc1cc(C)cc(-n2nc(NS(=O)(=O)c3ccccc3)c3cc(C(C)C)cnc32)c1 [Compound 46],< 1000,30 to 60
C=C(C)c1cnc2c(c1)c(NS(=O)(=O)c1ccccc1)nn2-c1cc(C)cc(C)c1 [Compound 47],< 1000,30 to 60
Cc1cc(C)cc(-n2nc(NS(=O)(=O)c3ccccc3)c3cc(Br)cnc32)c1 [Compound 48],< 1000,30 to 60
Cc1cc(C)c(-n2nc(NS(=O)(=O)c3cccc4c3OCCO4)c3ccc(C(C)(C)C)nc32)c(C)c1 [Compound 53],< 1000,30 to 60
COc1cccc(OC)c1S(=O)(=O)Nc1nn(-c2c(C)cc(C)cc2C)c2nc(C(C)(C)C)ccc12 [Compound 54],,< 30
COc1ccc(N)cc1S(=O)(=O)Nc1nn(-c2c(C)cc(C)cc2C)c2nc(C(C)(C)C)ccc12 [Compound 55],3000 to 30000,30 to 60
Cc1cc(C)c(-n2nc(NS(=O)(=O)c3ncc[nH]3)c3ccc(C(C)(C)C)nc32)c(C)c1 [Compound 56],1000 to 3000,30 to 60
COc1cc(OC)cc(S(=O)(=O)Nc2nn(-c3c(C)cc(C)cc3C)c3nc(C(C)(C)C)ccc23)c1 [Compound 57],,< 30
COc1ccc(OC)c(S(=O)(=O)Nc2nn(-c3c(C)cc(C)cc3C)c3nc(C(C)(C)C)ccc23)c1 [Compound 58],< 1000,30 to 60
COc1ccccc1S(=O)(=O)Nc1nn(-c2c(C)cc(C)cc2C)c2nc(C(C)(C)C)ccc12 [Compound 59],1000 to 3000,30 to 60
COc1cccc(S(=O)(=O)Nc2nn(-c3c(C)cc(C)cc3C)c3nc(C(C)(C)C)ccc23)c1 [Compound 60],< 1000,30 to 60
Cc1cc(C)c(-n2nc(NS(=O)(=O)c3cccc(N)c3)c3ccc(C(C)(C)C)nc32)c(C)c1 [Compound 61],< 1000,30 to 60
Cc1cc(C)c(-n2nc(NS(=O)(=O)c3cccc(Cl)c3)c3ccc(C(C)(C)C)nc32)c(C)c1 [Compound 62],,< 30
Cc1cccc(S(=O)(=O)Nc2nn(-c3c(C)cc(C)cc3C)c3nc(C(C)(C)C)ccc23)c1 [Compound 63],,< 30
COc1ccc(S(=O)(=O)Nc2nn(-c3c(C)cc(C)cc3C)c3nc(C(C)(C)C)ccc23)cc1 [Compound 64],,< 30
Cc1cc(C)c(-n2nc(NS(=O)(=O)c3ccc(Cl)cc3)c3ccc(C(C)(C)C)nc32)c(C)c1 [Compound 65],,< 30
Cc1ccc(S(=O)(=O)Nc2nn(-c3c(C)cc(C)cc3C)c3nc(C(C)(C)C)ccc23)cc1 [Compound 66],,< 30
Cc1cc(C)c(-n2nc(NS(=O)(=O)c3ccccc3N)c3ccc(C(C)(C)C)nc32)c(C)c1 [Compound 67],,< 30
Cc1cc(C)c(-n2nc(NS(=O)(=O)c3ccccc3Cl)c3ccc(C(C)(C)C)nc32)c(C)c1 [Compound 68],,< 30
Cc1cc(C)c(-n2nc(NS(=O)(=O)c3ccccc3C)c3ccc(C(C)(C)C)nc32)c(C)c1 [Compound 69],,< 30
Cc1cc(C)c(-n2nc3nc(C(C)(C)C)ccc3c2NS(=O)(=O)c2ccccc2)c(C)c1 [Compound 71],,< 30
"Cc1cccc(C)c1-c1nc(NS(=O)(=O)c2ccccc2)nc2c1CCCC2(C)c1ccccc1 (stereo not shown) [Compound 76, N-[4-(2,6-Dimethylphenyl)-8-methyl-8-phenyl-6,7-dihydro-5H-quinazolin-2-yl]benzenesulfonamide]",< 1000,> 60
Cc1ccc(-n2ncc3c2CC(C)(C)CC3NS(=O)(=O)c2ccccc2)cc1 (stereo not shown) [Compound 83],,< 30
CC(C)(C)C1CCc2nc(NS(=O)(=O)c3ccccc3)ncc2C1 (stereo not shown) [Compound 84],,< 30
Cc1cc(C)c(-c2nnc(NS(=O)(=O)c3ccccc3)c3ccc(C(C)(C)C)nc23)c(C)c1 [Compound 90],,< 30
